Experimental data taken from the NIST ThermoML archive (doi:10.1021/je6005778).

Conditions: Liquid; for speed of sound: Pulse-echo method

CCC(O)CO (stereo unspecified) [1,2-butanediol]
Conditions | mass density [kg/m3] | speed of sound [m/s]
288.15 K, 101.33 kPa | 1005.78 | –
292.87 K, 45600 kPa | – | 1634.3
292.87 K, 60790 kPa | – | 1681.5
292.87 K, 75990 kPa | – | 1726
292.87 K, 91190 kPa | – | 1768
292.87 K, 101320 kPa | – | 1794.7
292.88 K, 15200 kPa | – | 1528.2
292.88 K, 30400 kPa | – | 1583.2
292.93 K, 101.33 kPa | – | 1466.5
293.15 K, 101.33 kPa | 1002.12 | –
298.1 K, 101.33 kPa | – | 1451.3
298.15 K, 101.33 kPa | 998.408 | –
298.15 K, 15200 kPa | – | 1513.5
298.15 K, 30400 kPa | – | 1569.2
298.15 K, 45600 kPa | – | 1621.1
298.15 K, 60790 kPa | – | 1668.8
298.15 K, 75990 kPa | – | 1713.8
298.15 K, 91190 kPa | – | 1755.9
298.15 K, 101320 kPa | – | 1783
303.13 K, 15200 kPa | – | 1500
303.13 K, 30400 kPa | – | 1556.4
303.13 K, 45600 kPa | – | 1608.8
303.13 K, 60790 kPa | – | 1657.1
303.13 K, 75990 kPa | – | 1702.2
303.13 K, 91190 kPa | – | 1745
303.13 K, 101320 kPa | – | 1772.3
303.15 K, 101.33 kPa | 994.659 | –
303.18 K, 101.33 kPa | – | 1436.5
308.12 K, 60790 kPa | – | 1645.5
308.12 K, 91190 kPa | – | 1734.2
308.13 K, 15200 kPa | – | 1486.6
308.13 K, 30400 kPa | – | 1543.5
308.13 K, 45600 kPa | – | 1596.5
308.13 K, 75990 kPa | – | 1691
308.13 K, 101320 kPa | – | 1761.7
308.15 K, 101.33 kPa | 990.872 | –
308.17 K, 101.33 kPa | – | 1421.8
313.15 K, 101.33 kPa | 987.048 | –
313.3 K, 30400 kPa | – | 1530.3
313.3 K, 45600 kPa | – | 1583.7
313.3 K, 60790 kPa | – | 1633.4
313.3 K, 75990 kPa | – | 1679.3
313.3 K, 91190 kPa | – | 1723
313.3 K, 101320 kPa | – | 1750.4
313.31 K, 15200 kPa | – | 1472.8
313.35 K, 101.33 kPa | – | 1406.7
318.15 K, 101.33 kPa | 983.185 | 1392.6
323.15 K, 101.33 kPa | 979.285 | –
328.15 K, 101.33 kPa | 975.354 | –
333.15 K, 101.33 kPa | 971.386 | –
338.16 K, 101.33 kPa | 967.378 | –
343.15 K, 101.33 kPa | 963.333 | –
348.16 K, 101.33 kPa | 959.256 | –
353.15 K, 101.33 kPa | 955.143 | –
358.15 K, 101.33 kPa | 950.989 | –
363.15 K, 101.33 kPa | 946.804 | –

CC(O)CCO (stereo unspecified) [1,3-butanediol]
Conditions | mass density [kg/m3] | speed of sound [m/s]
288.15 K, 101.33 kPa | 1006.75 | –
292.86 K, 45590 kPa | – | 1686.5
292.86 K, 75990 kPa | – | 1770.1
292.86 K, 91180 kPa | – | 1808.7
292.86 K, 101320 kPa | – | 1833.6
292.87 K, 15200 kPa | – | 1592.1
292.87 K, 30390 kPa | – | 1641
292.87 K, 60790 kPa | – | 1729.5
292.92 K, 101.33 kPa | – | 1537.7
293.15 K, 101.33 kPa | 1003.52 | –
298.15 K, 101.33 kPa | 1000.23 | –
298.15 K, 15200 kPa | – | 1578.4
298.15 K, 30390 kPa | – | 1628
298.15 K, 45590 kPa | – | 1673.8
298.15 K, 60790 kPa | – | 1717.4
298.15 K, 75990 kPa | – | 1758.3
298.15 K, 91180 kPa | – | 1797.3
298.15 K, 101320 kPa | – | 1822.1
298.2 K, 101.33 kPa | – | 1523.3
303.13 K, 15200 kPa | – | 1565.3
303.13 K, 30390 kPa | – | 1615.9
303.13 K, 45590 kPa | – | 1662.2
303.13 K, 60790 kPa | – | 1706
303.13 K, 75990 kPa | – | 1747.3
303.13 K, 91180 kPa | – | 1786.7
303.13 K, 101320 kPa | – | 1811.6
303.15 K, 101.33 kPa | 996.895 | –
303.17 K, 101.33 kPa | – | 1509.7
308.11 K, 101320 kPa | – | 1801.7
308.12 K, 45590 kPa | – | 1650.6
308.12 K, 75990 kPa | – | 1736.7
308.13 K, 15200 kPa | – | 1552.4
308.13 K, 30390 kPa | – | 1603.5
308.13 K, 60790 kPa | – | 1694.6
308.13 K, 91180 kPa | – | 1776.3
308.15 K, 101.33 kPa | 993.524 | –
308.16 K, 101.33 kPa | – | 1496
313.11 K, 15200 kPa | – | 1539.6
313.11 K, 30390 kPa | – | 1591.2
313.11 K, 45590 kPa | – | 1639.1
313.11 K, 60790 kPa | – | 1683.6
313.11 K, 75990 kPa | – | 1725.9
313.11 K, 91180 kPa | – | 1765.9
313.11 K, 101320 kPa | – | 1791.5
313.14 K, 101.33 kPa | – | 1482.3
313.15 K, 101.33 kPa | 990.116 | –
318.16 K, 101.33 kPa | 986.665 | –
318.29 K, 15200 kPa | – | 1526.2
318.29 K, 30390 kPa | – | 1578.4
318.29 K, 45590 kPa | – | 1627
318.29 K, 60790 kPa | – | 1672
318.29 K, 75990 kPa | – | 1714.8
318.29 K, 91180 kPa | – | 1755.2
318.29 K, 101320 kPa | – | 1781.1
318.32 K, 101.33 kPa | – | 1467.9
323.15 K, 101.33 kPa | 983.181 | –
328.16 K, 101.33 kPa | 979.654 | –
333.16 K, 101.33 kPa | 976.087 | –
338.15 K, 101.33 kPa | 972.476 | –
343.15 K, 101.33 kPa | 968.825 | –
348.16 K, 101.33 kPa | 965.14 | –
353.15 K, 101.33 kPa | 961.411 | –
358.15 K, 101.33 kPa | 957.637 | –
363.15 K, 101.33 kPa | 953.825 | –
